Measured values published in patent US20250171426A1, “PYRIMIDINEDIONE-BASED COMPOUNDS AS AXL, C-MET, AND MER INHIBITORS AND METHODS OF USE THEREOF” (CMG Pharmaceutical Co., Ltd., priority 2022, published 2025).

Experiments:
AXL = molecular target: T1, AXL (Homo sapiens, UniProt P30530); test: Enzymatic assay (ADP-Glo kinase reaction), AXL; format: biochemical; settings: 10 μM ATP, 60 min, ADP-GLO luminescence
T1 sequence (P30530 26-894): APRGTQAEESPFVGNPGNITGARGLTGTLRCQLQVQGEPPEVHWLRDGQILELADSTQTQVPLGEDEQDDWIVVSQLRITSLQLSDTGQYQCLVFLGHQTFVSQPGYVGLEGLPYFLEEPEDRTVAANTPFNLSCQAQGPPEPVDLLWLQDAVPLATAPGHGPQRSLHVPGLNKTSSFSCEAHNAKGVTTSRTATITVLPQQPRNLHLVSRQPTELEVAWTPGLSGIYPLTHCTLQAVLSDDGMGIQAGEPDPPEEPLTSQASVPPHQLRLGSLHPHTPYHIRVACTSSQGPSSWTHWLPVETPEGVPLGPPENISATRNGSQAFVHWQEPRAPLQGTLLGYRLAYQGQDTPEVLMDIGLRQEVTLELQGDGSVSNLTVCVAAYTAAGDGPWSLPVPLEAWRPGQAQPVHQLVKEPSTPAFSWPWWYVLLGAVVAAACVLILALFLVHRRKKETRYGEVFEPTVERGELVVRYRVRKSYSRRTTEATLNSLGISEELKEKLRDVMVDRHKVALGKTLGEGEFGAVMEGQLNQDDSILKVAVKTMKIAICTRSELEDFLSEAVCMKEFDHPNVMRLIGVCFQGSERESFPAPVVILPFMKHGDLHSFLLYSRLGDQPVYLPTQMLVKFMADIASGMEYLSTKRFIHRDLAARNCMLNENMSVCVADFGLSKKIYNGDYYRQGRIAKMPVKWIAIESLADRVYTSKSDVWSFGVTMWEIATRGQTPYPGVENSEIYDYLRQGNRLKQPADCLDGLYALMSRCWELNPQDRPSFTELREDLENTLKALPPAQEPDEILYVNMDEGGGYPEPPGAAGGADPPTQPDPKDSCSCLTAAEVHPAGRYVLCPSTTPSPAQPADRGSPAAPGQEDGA
Procedure, shortened: (§1)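 For both AXL and c-MET, reactions in tyrosine kinase buffer used 0.2 μg/μL poly(Glu4,Tyr1) and 10 μM ATP with serially diluted inhibitor, 60 min at room temperature. ADP formed was read by ADP-Glo luminescence after 40 min reagent incubation.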

c-MET = c-MET (Homo sapiens, UniProt P08581); test: Enzymatic assay (ADP-Glo kinase reaction), c-MET; format: biochemical; settings: 10 μM ATP, 60 min, ADP-GLO luminescence
c-MET, sequence (P08581 25-1390): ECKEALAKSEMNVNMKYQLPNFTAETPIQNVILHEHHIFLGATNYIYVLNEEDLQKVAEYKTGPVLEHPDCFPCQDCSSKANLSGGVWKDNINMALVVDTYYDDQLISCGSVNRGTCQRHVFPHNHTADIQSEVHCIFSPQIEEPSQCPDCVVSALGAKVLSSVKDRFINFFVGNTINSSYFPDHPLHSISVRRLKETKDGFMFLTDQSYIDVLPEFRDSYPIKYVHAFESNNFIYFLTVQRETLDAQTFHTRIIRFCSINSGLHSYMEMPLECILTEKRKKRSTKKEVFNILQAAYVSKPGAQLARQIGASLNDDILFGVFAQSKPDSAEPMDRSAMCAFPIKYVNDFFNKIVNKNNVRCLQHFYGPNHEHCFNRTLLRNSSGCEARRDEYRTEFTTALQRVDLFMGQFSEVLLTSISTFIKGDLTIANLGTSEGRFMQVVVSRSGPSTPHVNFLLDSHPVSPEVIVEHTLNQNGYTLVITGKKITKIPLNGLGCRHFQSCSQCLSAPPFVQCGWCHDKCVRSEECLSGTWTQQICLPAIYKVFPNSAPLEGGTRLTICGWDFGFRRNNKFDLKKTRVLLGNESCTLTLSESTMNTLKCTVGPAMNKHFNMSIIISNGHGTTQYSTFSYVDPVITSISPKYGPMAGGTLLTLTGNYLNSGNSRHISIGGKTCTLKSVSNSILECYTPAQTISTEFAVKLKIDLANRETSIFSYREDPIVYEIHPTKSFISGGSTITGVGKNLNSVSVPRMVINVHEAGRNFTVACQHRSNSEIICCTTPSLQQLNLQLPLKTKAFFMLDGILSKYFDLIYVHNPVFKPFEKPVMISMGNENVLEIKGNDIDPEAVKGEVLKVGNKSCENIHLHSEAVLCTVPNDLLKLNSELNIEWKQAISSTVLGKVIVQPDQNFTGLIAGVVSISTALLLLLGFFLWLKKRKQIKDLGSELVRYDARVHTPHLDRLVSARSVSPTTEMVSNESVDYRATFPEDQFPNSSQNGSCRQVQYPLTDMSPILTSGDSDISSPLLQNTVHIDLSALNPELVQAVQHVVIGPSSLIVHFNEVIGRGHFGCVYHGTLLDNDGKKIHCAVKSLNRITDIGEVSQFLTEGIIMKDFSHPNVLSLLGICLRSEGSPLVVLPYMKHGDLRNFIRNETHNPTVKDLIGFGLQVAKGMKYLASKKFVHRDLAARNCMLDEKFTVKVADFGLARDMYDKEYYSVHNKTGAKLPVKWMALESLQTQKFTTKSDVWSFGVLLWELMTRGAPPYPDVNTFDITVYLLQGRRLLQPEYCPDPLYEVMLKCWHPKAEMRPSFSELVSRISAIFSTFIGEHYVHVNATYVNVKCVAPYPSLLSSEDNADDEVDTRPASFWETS
Procedure, shortened: as §1

MER = molecular target: T2, MER (Homo sapiens, UniProt Q12866); test: Enzymatic assay (ADP-Glo kinase reaction), MER; format: biochemical; settings: 10 μM ATP, 60 min, ADP-GLO luminescence
T2 sequence (Q12866 21-999): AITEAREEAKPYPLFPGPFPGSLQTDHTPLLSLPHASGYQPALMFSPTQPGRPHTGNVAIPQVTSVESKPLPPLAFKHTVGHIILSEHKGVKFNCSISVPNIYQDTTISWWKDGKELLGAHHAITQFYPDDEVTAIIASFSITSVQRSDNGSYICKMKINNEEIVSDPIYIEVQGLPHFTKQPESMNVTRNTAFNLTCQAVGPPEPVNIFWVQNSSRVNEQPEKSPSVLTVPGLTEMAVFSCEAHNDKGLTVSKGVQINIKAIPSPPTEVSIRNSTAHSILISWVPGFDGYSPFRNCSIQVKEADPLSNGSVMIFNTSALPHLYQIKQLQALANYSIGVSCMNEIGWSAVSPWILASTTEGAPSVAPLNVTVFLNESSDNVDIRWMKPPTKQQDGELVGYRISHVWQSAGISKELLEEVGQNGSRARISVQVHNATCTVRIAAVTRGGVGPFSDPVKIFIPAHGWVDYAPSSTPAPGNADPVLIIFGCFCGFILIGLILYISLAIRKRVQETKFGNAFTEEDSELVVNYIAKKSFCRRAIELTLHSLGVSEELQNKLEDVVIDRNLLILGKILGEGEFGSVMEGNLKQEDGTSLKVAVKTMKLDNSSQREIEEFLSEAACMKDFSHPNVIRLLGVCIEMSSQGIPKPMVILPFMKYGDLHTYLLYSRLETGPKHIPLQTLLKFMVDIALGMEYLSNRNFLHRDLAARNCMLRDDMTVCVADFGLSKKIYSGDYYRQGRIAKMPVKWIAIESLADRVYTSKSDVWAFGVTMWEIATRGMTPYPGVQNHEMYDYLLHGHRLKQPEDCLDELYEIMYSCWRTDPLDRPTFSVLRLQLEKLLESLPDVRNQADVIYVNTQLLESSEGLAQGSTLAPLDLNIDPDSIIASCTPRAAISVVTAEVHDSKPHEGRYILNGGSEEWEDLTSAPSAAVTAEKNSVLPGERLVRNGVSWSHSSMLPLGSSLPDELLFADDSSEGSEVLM
Procedure, shortened: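 ADP-Glo luminescence assay of MER in tyrosine kinase buffer with 0.2 μg/μL poly(Glu4,Tyr1) substrate and 10 μM ATP. Serially diluted inhibitor reacted 60 min at room temperature. IC50 taken from luminescence after ADP-Glo and detection steps.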

HCC827OR = test: Cell viability assay (CellTiter-Glo 2.0), osimertinib-resistant HCC827/OR cells; format: cell-based, human
Description: (§2) To explore c-MET and AXL mechanisms of EGFR TKI resistance, resistant cells of the EGFR TKI hypersensitive EGFR exon 19 mutant NSCLC cell line, HCC827 and PC9 were generated by exposing these cells to increasing concentrations of EGFR TKI for over 3 months.
(§3) Gefitinib-resistant cells were referred to as HCC827/GR. […] Osimertinib-resistant cells were referred to as HCC827/OR.

PC9ER = test: Cell viability assay (CellTiter-Glo 2.0), erlotinib-resistant PC9/ER cells; format: cell-based; settings: 72 h, combination of EGFR TKI and inhibitor of Formula (I), read-out: Relative cell viability, IC50 (nM) PC9ER
Description: as §2, §3

HCC827GR = test: Cell viability assay (CellTiter-Glo 2.0), gefitinib-resistant HCC827/GR cells; format: cell-based, human; settings: 72 h, combination of EGFR TKI and inhibitor of Formula (I), read-out: Relative cell viability, IC50 (nM) HCC827GR
Description: as §2
The human cell line HCC827 was purchased from the American Type Culture Collection (Manassas, VA), and the PC9 cell line was obtained from RIKEN Cell Bank (Ibaraki, Japan). […] Gefitinib-resistant cells were referred to as HCC827/GR. […] Osimertinib-resistant cells were referred to as HCC827/OR.
(§4) Cell viability assays were carried out by plating 1,000 cells per well of HCC827 or PC9 resistant cells, respectively, into white transparent-bottom 384-well plates. The cells were treated with each TKI across a 10-dose range from 1 nM to 10,000 nM. After 72 h of drug treatment, cell viability was measured using the CellTiter-Glo 2.0 assay (Promega, Madison, WI).
as §4

HCC827ER = test: Cell viability assay (CellTiter-Glo 2.0), erlotinib-resistant HCC827/ER cells; format: cell-based, human; settings: 72 h, combination of EGFR TKI and inhibitor of Formula (I), read-out: Relative cell viability, IC50 (nM) HCC827ER
Description: as §2, §3

IC50 (AXL) | IC50 (c-MET) | IC50 (MER) | IC50 (PC9ER) | IC50 (HCC827GR) | IC50 (HCC827OR; 72 h, combination of EGFR TKI and inhibitor of Formula (I), EGFR TKI-resistant cells, read-out: Relative cell viability, IC50 (nM) HCC827OR) | IC50 (HCC827ER) | Compound | fold higher resistance than the parental cells, HCC827/OR (HCC827OR; HCC827/OR vs HCC827)
< 100 nM | < 100 nM | < 10 nM |  |  |  |  | CN1CCN(C(C)(C)C#Cc2c(Oc3ccc(NC(=O)c4cn(C5CCOCC5)c(=O)n(-c5ccc(F)cc5)c4=O)cc3F)ccnc2N)CC1 [Example 57, N-(4-(2-amino-3-(3-methyl-3-(4-methylpiperazin-1-yl)but-1-ynyl)pyridin-4-yloxy)-3-fluorophenyl)-3-(4-fluorophenyl)-2,4-dioxo-1-(tetrahydro-2H-pyran-4-yl)-1,2,3,4-tetrahydropyrimidine-5-carboxamide] | 
< 100 nM | < 100 nM | < 10 nM |  |  |  |  | CC(C)(C#Cc1c(Oc2ccc(NC(=O)c3cn(C4CCOCC4)c(=O)n(-c4ccc(F)cc4)c3=O)cc2F)ccnc1N)N1CCNCC1 [Example 58, N-(4-(2-amino-3-(3-methyl-3-(piperazin-1-yl)but-1-ynyl)pyridin-4-yloxy)-3-fluorophenyl)-3-(4-fluorophenyl)-2,4-dioxo-1-(tetrahydro-2H-pyran-4-yl)-1,2,3,4-tetrahydropyrimidine-5-carboxamide] | 
< 100 nM | < 100 nM | < 10 nM |  |  |  |  | Nc1nccc(Oc2ccc(NC(=O)c3cn(C4CCOCC4)c(=O)n(-c4ccc(F)cc4)c3=O)cc2F)c1C#CCC1CCNCC1 [Example 59, N-(4-(2-amino-3-(3-(piperidin-4-yl)prop-1-ynyl)pyridin-4-yloxy)-3-fluorophenyl)-3-(4-fluorophenyl)-2,4-dioxo-1-(tetrahydro-2H-pyran-4-yl)-1,2,3,4-tetrahydropyrimidine-5-carboxamide] | 
< 10 nM | < 100 nM | < 10 nM |  |  |  |  | CN1CCC(CC#Cc2c(Oc3ccc(NC(=O)c4cn(C5CCOCC5)c(=O)n(-c5ccc(F)cc5)c4=O)cc3F)ccnc2N)CC1 [Example 60, N-(4-(2-amino-3-(3-(1-methylpiperidin-4-yl)prop-1-ynyl)pyridin-4-yloxy)-3-fluorophenyl)-3-(4-fluorophenyl)-2,4-dioxo-1-(tetrahydro-2H-pyran-4-yl)-1,2,3,4-tetrahydropyrimidine-5-carboxamide] | 
< 10 nM | < 100 nM | < 10 nM |  |  |  |  | C=CCn1cc(C(=O)Nc2ccc(Oc3ccnc(N)c3C#CCN3CCOCC3)c(F)c2)c(=O)n(CC=C)c1=O [Example 67, 1,3-diallyl-N-(4-(2-amino-3-(3-morpholinoprop-1-ynyl)pyridin-4-yloxy)-3-fluorophenyl)-2,4-dioxo-1,2,3,4-tetrahydropyrimidine-5-carboxamide] | 
< 1000 nM | < 1000 nM | < 100 nM |  |  |  |  | C=CCn1cc(C(=O)Nc2ccc(Oc3ccnc(N)c3C#CC(C)(C)N3CCN(C)CC3)c(F)c2)c(=O)n(CC=C)c1=O [Example 68, 1,3-diallyl-N-(4-(2-amino-3-(3-methyl-3-(4-methylpiperazin-1-yl)but-1-ynyl)pyridin-4-yloxy)-3-fluorophenyl)-2,4-dioxo-1,2,3,4-tetrahydropyrimidine-5-carboxamide] | 
< 100 nM | < 1000 nM | < 100 nM |  |  |  |  | C=CCn1cc(C(=O)Nc2ccc(Oc3ccnc(N)c3C#CCC3CCN(C)CC3)c(F)c2)c(=O)n(CC=C)c1=O [Example 69, 1,3-diallyl-N-(4-(2-amino-3-(3-(1-methylpiperdin-4-yl)prop-1-ynyl)pyridin-4-yloxy)-3-fluorophenyl)-2,4-dioxo-1,2,3,4-tetrahydropyrimidine-5-carboxamide] | 
< 1000 nM | < 1000 nM | < 10 nM |  |  |  |  | C=CCn1cc(C(=O)Nc2ccc(Oc3ccnc(N)c3C#CC(C)(C)N3CCOCC3)c(F)c2)c(=O)n(CC=C)c1=O [Example 70, 1,3-diallyl-N-(4-(2-amino-3-(3-methyl-3-morpholinobut-1-ynyl)pyridin-4-yloxy)-3-fluorophenyl)-2,4-dioxo-1,2,3,4-tetrahydropyrimidine-5-carboxamide] | 
< 100 nM | < 100 nM | < 10 nM |  |  |  |  | C=CCn1cc(C(=O)Nc2ccc(Oc3ccnc(N)c3C#CCC3CCNCC3)c(F)c2)c(=O)n(CC=C)c1=O [Example 71, 1,3-dialyl-N-(4-(2-amino-3-(3-(piperidin-4-yl)prop-1-ynyl)pyridin-4-yloxy)-3-fluorophenyl)-2,4-dioxo-1,2,3,4-tetrahydropyrimidine-5-carboxamide] | 
 |  |  |  |  |  |  | C=CC(=O)Nc1cc(Nc2nccc(-c3cn(C)c4ccccc34)n2)c(OC)cc1N(C)CCN(C)C [osimertinib, reference compound] | 3,000 fold
 |  |  | < 1000 nM | < 1000 nM | < 10000 nM | < 1000 nM | N-(4-(2-amino-3-(3-piperidin-4-yl)prop-1-ynyl)pyridin-4-yloxy)-3-fluorophenyl)-3-cyclohexyl-1-ethyl-2,4-dioxo-1,2,3,4-tetrahydropyrimidine-5-carboxamide [Example 65] | 
